Source: patent US20080103199A1, “TREATMENT OF PERVASIVE DEVELOPMENTAL DISORDERS” (priority 2006, published 2008)

System: male mice
Assay: General behavior of male mice, visual observation using a checklist of behaviors;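 further: oral administration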
Type: in vivo
Conditions: for Number of Mice Affected: Reduced Skin Plasticity / Number of Mice Affected: Soft Body Tone / Number of Mice Affected: Tail Pinch Response, Absent / Number of Mice Affected: Decreased Open Field Activity / Number of Mice Affected: Decreased Startle Reflex / Number of Mice Affected: Extensor Limb Tone (hind limb) / Number of Mice Affected: Impaired Horizontal Screen Performance / Number of Mice Affected: Impaired Visual Placing Reflex / Number of Mice Affected: Locomotor Ataxia / Number of Mice Affected: Loss of Corneal Reflex / Number of Mice Affected: Loss of Pinnal Reflex / Number of Mice Affected: Loss of Righting Reflex / Number of Mice Affected: Passive Response to Handling: N = 3/group
Procedure: The effects of test compound on general behavior were evaluated by visual observation using a checklist of behaviors.

Number of Mice Affected: Reduced Skin Plasticity (100 mg/kg p.o., 1 h): 0
Number of Mice Affected: Soft Body Tone (100 mg/kg p.o., 1 h): 0
Number of Mice Affected: Tail Pinch Response, Absent (100 mg/kg p.o., 1 h): 0
Number of Mice Affected: Decreased Open Field Activity (100 mg/kg p.o., 4 h): 0
Number of Mice Affected: Decreased Startle Reflex (100 mg/kg p.o., 4 h): 0
Number of Mice Affected: Extensor Limb Tone (hind limb) (100 mg/kg p.o., 4 h): 0
Number of Mice Affected: Impaired Horizontal Screen Performance (100 mg/kg p.o., 4 h): 0
Number of Mice Affected: Impaired Visual Placing Reflex (100 mg/kg p.o., 4 h): 0
Number of Mice Affected: Loss of Corneal Reflex (100 mg/kg p.o., 4 h): 0
Number of Mice Affected: Loss of Pinnal Reflex (100 mg/kg p.o., 4 h): 0
Number of Mice Affected: Loss of Righting Reflex (100 mg/kg p.o., 4 h): 0
Number of Mice Affected: Passive Response to Handling (100 mg/kg p.o., 4 h): 0
Number of Mice Affected: Reduced Skin Plasticity (100 mg/kg p.o., 4 h): 0
Number of Mice Affected: Soft Body Tone (100 mg/kg p.o., 4 h): 0
Number of Mice Affected: Tail Pinch Response, Absent (100 mg/kg p.o., 4 h): 0
Number of Mice Affected: Decreased Open Field Activity (300 mg/kg p.o., 1 h): 3
Number of Mice Affected: Decreased Startle Reflex (300 mg/kg p.o., 1 h): 3
Number of Mice Affected: Extensor Limb Tone (hind limb) (300 mg/kg p.o., 1 h): 3
Number of Mice Affected: Impaired Horizontal Screen Performance (300 mg/kg p.o., 1 h): 3
Number of Mice Affected: Impaired Visual Placing Reflex (300 mg/kg p.o., 1 h): 3
Number of Mice Affected: Loss of Corneal Reflex (300 mg/kg p.o., 1 h): 3
Number of Mice Affected: Loss of Pinnal Reflex (300 mg/kg p.o., 1 h): 3
Number of Mice Affected: Loss of Righting Reflex (300 mg/kg p.o., 1 h): 3
Number of Mice Affected: Passive Response to Handling (300 mg/kg p.o., 1 h): 3
Number of Mice Affected: Reduced Skin Plasticity (300 mg/kg p.o., 1 h): 3
Number of Mice Affected: Soft Body Tone (300 mg/kg p.o., 1 h): 3
Number of Mice Affected: Tail Pinch Response, Absent (300 mg/kg p.o., 1 h): 3
Number of Mice Affected: Decreased Open Field Activity (300 mg/kg p.o., 4 h): 2
Number of Mice Affected: Decreased Startle Reflex (300 mg/kg p.o., 4 h): 0
Number of Mice Affected: Extensor Limb Tone (hind limb) (300 mg/kg p.o., 4 h): 2
Number of Mice Affected: Impaired Horizontal Screen Performance (300 mg/kg p.o., 4 h): 2
Number of Mice Affected: Impaired Visual Placing Reflex (300 mg/kg p.o., 4 h): 0
Number of Mice Affected: Loss of Corneal Reflex (300 mg/kg p.o., 4 h): 0
Number of Mice Affected: Loss of Pinnal Reflex (300 mg/kg p.o., 4 h): 0
Number of Mice Affected: Loss of Righting Reflex (300 mg/kg p.o., 4 h): 0
Number of Mice Affected: Passive Response to Handling (300 mg/kg p.o., 4 h): 0
Number of Mice Affected: Reduced Skin Plasticity (300 mg/kg p.o., 4 h): 0
Number of Mice Affected: Soft Body Tone (300 mg/kg p.o., 4 h): 2
Number of Mice Affected: Tail Pinch Response, Absent (300 mg/kg p.o., 4 h): 0
SMILES: NC(=O)OC[C@@H](O)c1ccccc1Cl [COMPOUND #7]
Number of Mice Affected: Locomotor Ataxia (100 mg/kg p.o., 4 h): 0
Behavioral or physical signs (general behavior) (300 mg/kg p.o.): produced sedation
Number of Mice Affected: Locomotor Ataxia (300 mg/kg p.o., 1 h): 0
Number of Mice Affected: Locomotor Ataxia (300 mg/kg p.o., 4 h): 2
Behavioral or physical signs (general behavior) (doses up to 100 mg/kg p.o.): No behavioral or physical signs were observed
